Laboratory results reported in the supplement of paper PMC13380429.
Counter-ions that a name gives are not always drawn.

Tests used:
Conditions in all cases: 72 h
Caco-2 [1] = assay: cell viability relative to DMSO; higher = less toxic
Calu-3 [2] = assay: as above
HepG2 [3] = assay: as above
U2OS [4] = assay: as above
Vero E6 [5] = assay: as above
Caco-2 [6] = assay: relative viability EC50 (midpoint between 100% and the lowest measured viability); higher = less toxic
Calu-3 [7] = assay: as above
HepG2 [8] = assay: as above
Caco-2 [9] = assay: drug sensitivity score (DSS) for viability; higher = more toxic; extreme values may be limits of the assay
Calu-3 [10] = assay: as above
HepG2 [11] = assay: as above
U2OS [12] = assay: as above
Vero E6 [13] = assay: as above
U2OS [14] = assay: relative viability EC50 (midpoint between 100% and the lowest measured viability); higher = less toxic
Vero E6 [15] = assay: as above

SMILES | cell viability (Caco-2 [1]; 1 nM) [%] | cell viability (Caco-2 [1]; 10 nM) [%] | cell viability (Caco-2 [1]; 100 nM) [%] | cell viability (Caco-2 [1]; 1000 nM) [%] | cell viability (Caco-2 [1]; 10000 nM) [%] | cell viability (Calu-3 [2]; 1 nM) [%] | cell viability (Calu-3 [2]; 10 nM) [%] | cell viability (Calu-3 [2]; 100 nM) [%] | cell viability (Calu-3 [2]; 1000 nM) [%] | cell viability (Calu-3 [2]; 10000 nM) [%] | cell viability (HepG2 [3]; 1 nM) [%] | cell viability (HepG2 [3]; 10 nM) [%] | cell viability (HepG2 [3]; 100 nM) [%] | cell viability (HepG2 [3]; 1000 nM) [%] | cell viability (HepG2 [3]; 10000 nM) [%] | cell viability (U2OS [4]; 1 nM) [%] | cell viability (U2OS [4]; 10 nM) [%] | cell viability (U2OS [4]; 100 nM) [%] | cell viability (U2OS [4]; 1000 nM) [%] | cell viability (U2OS [4]; 10000 nM) [%] | cell viability (Vero E6 [5]; 1 nM) [%] | cell viability (Vero E6 [5]; 10 nM) [%] | cell viability (Vero E6 [5]; 100 nM) [%] | cell viability (Vero E6 [5]; 1000 nM) [%] | cell viability (Vero E6 [5]; 10000 nM) [%] | relative viability EC50 (Caco-2 [6]) [µM] | relative viability EC50 (Calu-3 [7]) [µM] | relative viability EC50 (HepG2 [8]) [µM] | drug sensitivity score (Caco-2 [9]) | drug sensitivity score (Calu-3 [10]) | drug sensitivity score (HepG2 [11]) | drug sensitivity score (U2OS [12]) | drug sensitivity score (Vero E6 [13]) | relative viability EC50 (U2OS [14]) [µM] | relative viability EC50 (Vero E6 [15]) [µM]
Sc1ncnc2nc[nH]c12 [mercaptopurine] | 110 | 103 | 109 | 77 | 89.6 | 113 | 91 | 94.3 | 90.8 | 106 | 112 | 115 | 107 | 69.7 | 18.8 | 102 | 101 | 93.4 | 71 | 65.1 | 103 | 104 | 99.5 | 103 | 70.6 | > 10 | > 10 | 1.23 | 3.1 | 0 | 8.7 | 5.6 | 1.1 |  | 
c1cc(-c2cnn3cc(-c4ccc(N5CCNCC5)cc4)cnc23)c2cccnc2c1 | 93.9 | 99.7 | 102 | 95.1 | 20.6 | 109 | 104 | 97.4 | 111 | 6.2 | 108 | 101 | 97.2 | 102 | 74.9 | 97.4 | 93.2 | 95.9 | 87.2 | 1.5 | 92.4 | 99 | 92.6 | 87.7 | 69.3 | 2.67 | 3.69 |  | 5.1 | 4.5 | 0.8 | 7.6 | 2.5 | 2.11 | 
NNCCc1ccccc1 [phenelzine] | 88.4 | 100 | 93.4 | 92.6 | 75.1 |  |  |  |  |  | 109 | 92.8 | 84.1 | 120 | 91.4 | 98.4 | 98.7 | 94.6 | 99.8 | 95.1 | 105 | 103 | 101 | 90.3 | 98 | > 10 |  | > 10 | 1.4 |  | 0 | 0 | 0 | > 10 | > 10
Cc1ccc(NCCCc2ccccc2)c(N)c1 [NFKB-activation-inhibitor-II] | 89.4 | 85 | 92.6 | 98.4 | 79.9 | 90 | 93.8 | 94.7 | 103 | 84.1 | 110 | 97.1 | 103 | 98.2 | 100 | 98.9 | 102 | 94.9 | 102 | 93.2 |  |  |  |  |  | > 10 | > 10 | > 10 | 0 | 0.1 | 0 | 0 |  | > 10 | 
N#Cc1ccnc(N2C(=O)CC[C@H]2C(=O)N(c2cncc(F)c2)[C@H](C(=O)NC2CC(F)(F)C2)c2ccccc2Cl)c1 [ivosidenib] | 105 | 97.6 | 94.2 | 93 | 104 | 98.8 | 109 | 93.7 | 104 | 97.3 | 97.5 | 97.7 | 95.1 | 106 | 98.7 | 104 | 100 | 104 | 101 | 98.3 |  |  |  |  |  | > 10 | > 10 | > 10 | 0 | 0 | 0 | 0 |  | > 10 | 
COCc1c(-c2ccc(NC(=O)Nc3cc(C(F)(F)F)ccc3F)c(F)c2)c2c(N)ncnn2c1CN1CCOCC1 [ACTB-1003] | 105 | 99 | 102 | 78.4 | 32.9 | 101 | 87.5 | 93.9 | 72.1 | 65.2 | 110 | 104 | 91.1 | 18.1 | 2.1 | 97.6 | 97.1 | 101 | 75 | 23.3 | 95.7 | 102 | 101 | 106 | 24.8 | 1.35 |  | 0.386 | 6.8 | 5.2 | 16.2 | 7.8 | 3.7 | 1.34 | 3.57
CC(C)OC(=O)[C@H](C)N[P@](=O)(CO[C@H](C)Cn1cnc2c(N)ncnc21)Oc1ccccc1 [tenofovir-alafenamide] | 99.3 | 100 | 98.2 | 108 | 94.3 | 106 | 97.4 | 112 | 104 | 78.9 | 98.8 | 91.9 | 116 | 89 | 44.6 | 99.4 | 102 | 97.4 | 100 | 95.6 |  |  |  |  |  | > 10 | > 10 | 1.75 | 0 | 0.5 | 4.8 | 0 |  | > 10 | 
CC(C)N1CCN(c2ccc(C(=O)c3c(-c4ccc(O)cc4)sc4cc(O)ccc34)cc2)CC1 [Y-134] | 99.5 | 102 | 100 | 98.7 | 81.4 | 96 | 96.2 | 101 | 102 | 72.4 | 113 | 101 | 94 | 104 | 72.3 | 102 | 98.5 | 99 | 97.1 | 91.8 | 101 | 104 | 102 | 103 | 82.8 | > 10 |  |  | 0.6 | 1 | 0.9 | 0 | 0.3 | > 10 | > 10
CC[C@H]1OC(=O)C[C@@H](O)[C@H](C)[C@@H](O[C@@H]2O[C@H](C)[C@@H](O[C@H]3C[C@@](C)(O)[C@@H](O)[C@H](C)O3)[C@H](N(C)C)[C@H]2O)[C@@H](CC=O)C[C@@H](C)C(=O)/C=C/C(C)=C/[C@@H]1CO[C@@H]1O[C@H](C)[C@@H](O)[C@@H](OC)[C@H]1OC [TYLOSIN TARTRATE] | 101 | 96.4 | 109 | 63 | 23.4 | 104 | 108 | 104 | 91 | 74.6 | 99 | 101 | 95.2 | 94.8 | 40.7 | 102 | 97.3 | 96.9 | 56.6 | 39.9 | 102 | 102 | 98.7 | 95.2 | 18.9 | 1.03 |  | 2.44 | 8.9 | 2.1 | 4 | 8.7 | 5.2 | 0.566 | 2.7
S=C(NCCc1ccccn1)Nc1ccc(Br)cn1 [trovirdine] | 94.9 | 91.6 | 98.4 | 90 | 98.1 | 89.2 | 96.2 | 101 | 102 | 108 | 103 | 105 | 102 | 106 | 92.1 | 104 | 100 | 98.4 | 104 | 98.7 |  |  |  |  |  | > 10 | > 10 | > 10 | 0 | 0 | 0 | 0 |  | > 10 | 
CC(C)N(CCCCOCC(=O)NS(C)(=O)=O)c1cnc(-c2ccccc2)c(-c2ccccc2)n1 [selexipag] | 110 | 103 | 94.5 | 107 | 105 | 95 | 105 | 97.3 | 110 | 105 |  |  |  |  |  |  |  |  |  |  | 100 | 102 | 93 | 98.4 | 93.2 | > 10 | > 10 |  | 0 | 0 |  |  | 0 |  | > 10
Cc1c(NC(=O)N2CCOCC2)ccc2c1c1ccccc1n2C(C)C [NPY-5RA972] | 92.2 | 106 | 98.7 | 101 | 95.4 | 109 | 89.5 | 105 | 93.5 | 96 | 102 | 98.5 | 97.3 | 118 | 95.5 | 100 | 98.2 | 105 | 98.6 | 97.5 |  |  |  |  |  | > 10 | > 10 | > 10 | 0 | 0 | 0 | 0 |  | > 10 | 
CC1Nc2ccc(Cl)cc2S(=O)(=O)N1 (stereo not given) [IDRA-21] | 105 | 105 | 95 | 104 | 99 | 87.5 | 92.2 | 102 | 97.4 | 101 | 102 | 93.8 | 97.3 | 98.9 | 98 | 99.3 | 105 | 99.6 | 102 | 98.2 |  |  |  |  |  | > 10 | > 10 | > 10 | 0 | 0 | 0 | 0 |  | > 10 | 
CCc1[nH]c(=O)[nH]c1C(=O)c1ccncc1 [piroximone] | 96.4 | 95.2 | 88.7 | 99.4 | 94.6 | 103 | 110 | 99.3 | 95.2 | 89.3 |  |  |  |  |  | 93.5 | 103 | 94.6 | 102 | 94.1 | 99 | 94.6 | 96.8 | 93.3 | 94.6 | > 10 | > 10 |  | 0 | 0 |  | 0 | 0 | > 10 | > 10
C=C1CC/C=C(\C)CC[C@@H]2[C@@H]1CC2(C)C [g-caryophyllene] | 109 | 112 | 97.3 | 121 | 80.6 |  |  |  |  |  | 105 | 95.5 | 113 | 104 | 94.9 | 92.8 | 101 | 95.3 | 99.9 | 99 | 103 | 89.3 | 104 | 94.8 | 100 | > 10 |  | > 10 | 0.2 |  | 0 | 0 | 0 | > 10 | > 10
